Test system: dendritic cells in tumor draining lymph nodes
Assay: Maturation of dendritic cells in tumor draining lymph nodes of mice (Example 5)
Type: in vivo, mouse
Conditions: 24 hour after intratumoral injection, 10 μg MPLA
Description: Immunocompetent mice were injected with Yale University Mouse Melanoma Exposed to Radiation 1.7 (YUMMER1.7) cells for in vivo modeling of immunogenic, cutaneous melanoma. 300,000 cells of YUMMER 1.7 melanoma cells in 50 μL of sterile PBS were intradermally injected into the left flank of syngeneic C57Bl/6 mice.
The mice were watched for tumor growth for eight days until the mice were randomly divided into groups (n=10) based on tumor sizes between 40-90 mm^3. The mice received vehicle (10 μl distilled water), free MPLA (10 μg), NNP-MPLA (10 μg of active MPLA), and BNP-MPLA (10 μg of active MPLA) intratumorally. The mice were sacrificed either at 24 hours or 72 hours after the single intratumoral injection. The tumor draining lymph nodes, both axillary and inguinal, were collected from each mouse. A petri dish was used to collect the lymph nodes, and the frosted ends of microscope slides were used to gently release immune cells from the lymph nodes into fresh CRPMI and placed on ice until resuspension. […]
After lymph node single cell collection, the cells were rinsed with sterile PBS and plated into a 96 round-bottom well plate at a concentration density of 1-2×10^6 cells per well then rinsed again with PBS. […] The stained cells were then detected by flow cytometer (Cytoflex, Beckman Coulter). […]

## monophosphoryl lipid A [free MPLA]
  dendritic cell maturation (CD80+CD86+ in CD11c+ cells) in TDLN: significant increase
